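Cultured in 96-well plates, cells were exposed to test compound for 48 hours across five concentrations. GI50 marks 50% less growth. The concentration for full growth arrest is given as TGI.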
Tests used:
Assay in all cases: NCI tumour cell line growth inhibition, 48 h
SK-MEL-5 melanoma = system: SK-MEL-5 melanoma
TK-10 renal = system: TK-10 renal
A498 renal = system: A498 renal
HOP-92 NSCLC = system: HOP-92 NSCLC
IGROV1 ovarian = system: IGROV1 ovarian
UO-31 renal = system: UO-31 renal
LOX IMVI melanoma = system: LOX IMVI melanoma
PC-3 prostate = system: PC-3 prostate
MDA-MB-231 breast = system: MDA-MB-231 breast
SK-OV-3 ovarian = system: SK-OV-3 ovarian
DU-145 prostate = system: DU-145 prostate
HCC-2998 colon = system: HCC-2998 colon
HT29 colon = system: HT29 colon
BT-549 breast = system: BT-549 breast
ACHN renal = system: ACHN renal
NCI-H460 lung = system: NCI-H460 lung
KM12 colon = system: KM12 colon
786-0 renal = system: 786-0 renal
RXF 393 renal = system: RXF 393 renal
UACC-62 melanoma = system: UACC-62 melanoma
HCT-15 colon = system: HCT-15 colon
CCRF-CEM leukemia = system: CCRF-CEM leukemia
HCT-116 colon = system: HCT-116 colon
NCI-H226 lung = system: NCI-H226 lung
MCF7 breast = system: MCF7 breast
M14 melanoma = system: M14 melanoma
SF-268 CNS = system: SF-268 CNS
OVCAR-3 ovarian = system: OVCAR-3 ovarian
OVCAR-8 ovarian = system: OVCAR-8 ovarian
MDA-MB-435 = system: MDA-MB-435
EKVX NSCLC = system: EKVX NSCLC
A549 NSCLC = system: A549 NSCLC
NCI/ADR-RES ovarian = system: NCI/ADR-RES ovarian
SF-295 CNS = system: SF-295 CNS
UACC-257 melanoma = system: UACC-257 melanoma
NCI-H522 lung = system: NCI-H522 lung
HOP-62 NSCLC = system: HOP-62 NSCLC
SK-MEL-2 melanoma = system: SK-MEL-2 melanoma
OVCAR-4 ovarian = system: OVCAR-4 ovarian
HL-60(TB) leukemia = system: HL-60(TB) leukemia
SNB-75 CNS = system: SNB-75 CNS
SN12C renal = system: SN12C renal
NCI-H23 lung = system: NCI-H23 lung
U251 CNS = system: U251 CNS
SF-539 CNS = system: SF-539 CNS
MOLT-4 leukemia = system: MOLT-4 leukemia
SR leukemia = system: SR leukemia
HS 578T breast = system: HS 578T breast
SNB-19 CNS = system: SNB-19 CNS
SW-620 colon = system: SW-620 colon
SK-MEL-28 melanoma = system: SK-MEL-28 melanoma
MALME-3M melanoma = system: MALME-3M melanoma
T-47D breast = system: T-47D breast
OVCAR-5 ovarian = system: OVCAR-5 ovarian

## O=C1c2ccccc2C(=O)c2c1ccc(C(Br)Br)c2Cl
SK-MEL-5 melanoma
  GI50: 5.84 µM
  TGI: 18.1 µM
TK-10 renal
  GI50: 3.91 µM
  TGI: 12.3 µM
A498 renal
  GI50: 17 µM
  TGI: 31.9 µM
HOP-92 NSCLC
  GI50: 1.67 µM
  TGI: 3.35 µM
IGROV1 ovarian
  GI50: 1.7 µM
  TGI: 3.89 µM
UO-31 renal
  GI50: 1.73 µM
  TGI: 3.78 µM
LOX IMVI melanoma
  GI50: 1.59 µM
  TGI: 3.08 µM
PC-3 prostate
  GI50: 2.38 µM
  TGI: 6.28 µM
MDA-MB-231 breast
  GI50: 1.87 µM
  TGI: 3.7 µM
SK-OV-3 ovarian
  GI50: 15.1 µM
  TGI: 30 µM
DU-145 prostate
  GI50: 2.07 µM
  TGI: 4.7 µM
HCC-2998 colon
  GI50: 3.42 µM
  TGI: 12.1 µM
HT29 colon
  GI50: 1.87 µM
  TGI: 3.54 µM
BT-549 breast
  GI50: 1.79 µM
  TGI: 4.61 µM
ACHN renal
  GI50: 1.57 µM
  TGI: 3.02 µM
NCI-H460 lung
  GI50: 2.01 µM
  TGI: 3.85 µM
KM12 colon
  GI50: 2.04 µM
  TGI: 5.28 µM
786-0 renal
  GI50: 1.71 µM
  TGI: 3.25 µM
RXF 393 renal
  GI50: 2 µM
  TGI: 4.79 µM
UACC-62 melanoma
  GI50: 4.56 µM
  TGI: 16.6 µM
HCT-15 colon
  GI50: 1.69 µM
  TGI: 3.4 µM
CCRF-CEM leukemia
  GI50: 2.1 µM
  TGI: 8.21 µM
HCT-116 colon
  GI50: 1.58 µM
  TGI: 3.02 µM
NCI-H226 lung
  GI50: 4.49 µM
  TGI: 24.4 µM
MCF7 breast
  GI50: 1.69 µM
  TGI: 3.86 µM
M14 melanoma
  GI50: 2.67 µM
  TGI: 9.06 µM
SF-268 CNS
  GI50: 1.68 µM
  TGI: 3.45 µM
OVCAR-3 ovarian
  GI50: 1.66 µM
  TGI: 3.12 µM
OVCAR-8 ovarian
  GI50: 3.16 µM
  TGI: 8.87 µM
MDA-MB-435
  GI50: 3.03 µM
  TGI: 10.9 µM
EKVX NSCLC
  GI50: 4.42 µM
  TGI: 17.8 µM
A549 NSCLC
  GI50: 16.7 µM
  TGI: 32.3 µM
NCI/ADR-RES ovarian
  GI50: 3.1 µM
  TGI: 14.9 µM
SF-295 CNS
  GI50: 11.7 µM
  TGI: 23.9 µM
UACC-257 melanoma
  GI50: 12.1 µM
  TGI: 24.8 µM
NCI-H522 lung
  GI50: 1.6 µM
  TGI: 3.3 µM
HOP-62 NSCLC
  GI50: 2.1 µM
  TGI: 4.67 µM
SK-MEL-2 melanoma
  GI50: 3.27 µM
  TGI: 12.4 µM
OVCAR-4 ovarian
  GI50: 1.78 µM
  TGI: 4.3 µM
HL-60(TB) leukemia
  GI50: 3.66 µM
  TGI: 11.2 µM
SNB-75 CNS
  GI50: 13.7 µM
  TGI: 26.9 µM
SN12C renal
  GI50: 1.92 µM
  TGI: 3.82 µM
NCI-H23 lung
  GI50: 1.91 µM
  TGI: 4.92 µM
U251 CNS
  GI50: 1.75 µM
  TGI: 3.24 µM
SF-539 CNS
  GI50: 1.99 µM
  TGI: 4.61 µM
MOLT-4 leukemia
  GI50: 2.81 µM
  TGI: 9.32 µM
SR leukemia
  GI50: 1.83 µM
  TGI: 4.33 µM
HS 578T breast
  GI50: 2.81 µM
  TGI: 9.11 µM
SNB-19 CNS
  GI50: 3.55 µM
  TGI: 13.5 µM
SW-620 colon
  GI50: 1.78 µM
  TGI: 3.4 µM
SK-MEL-28 melanoma
  GI50: 11.9 µM
  TGI: 24.4 µM
MALME-3M melanoma
  GI50: 1.69 µM
  TGI: 3.38 µM
T-47D breast
  GI50: 1.76 µM
  TGI: 5.79 µM
OVCAR-5 ovarian
  GI50: 11.1 µM
  TGI: 23.9 µM

Reference: PubChem BioAssay (NCI)
